From PMC11196586, “Molecular insight into interactions between the Taf14, Yng1 and Sas3 subunits of the NuA3 complex” (Nature Communications, 2024) come the findings set out here.

One assay concerns Taf14YEATS. Description: NMR 1H,15N HSQC titration, Taf14YEATS. In kind it is binding, Saccharomyces cerevisiae. Conditions: 298 K. As for the experimental part: Nuclear magnetic resonance experiments were performed at 298 K on Varian INOVA 900 MHz (for Taf14FL) and 600 MHz (for Taf14ET and Taf14YEATS) spectrometers equipped with cryogenic probes as described. The NMR samples contained 0.05–0.2 mM uniformly ^15N-labeled Taf14 proteins in 50 mM Tris-HCl (pH 6.8–7.5), 150 mM NaCl, 0–5 mM DTT or 1x PBS (pH 6.6–7.5), supplemented with up to an additional 100 mM NaCl, 0–5 mM DTT or 0.2 mM TCEP and 8-10% D2O. Binding was characterized by monitoring chemical shift changes in ^1H,^15N HSQC spectra of the proteins induced by the addition of wild type or mutated Yng1EBM (aa 113-124), Sas3EBM (aa 111-122) and Yng1EBM-PHD (aa 100-219). NMR data were processed and analyzed using NMRPipe as previously described, with the apparent Kds being determined by a nonlinear least-squares analysis and a 1:1 stoichiometry in GraphPad Prism using the equation:2 Δδ=ΔδmaxL+P+Kd−L+P+Kd^2−4PL/2P Where [L] is the concentration of the peptide, [P] is concentration of the protein, Δδ is the observed chemical shift change, and Δδ max is the normalized chemical shift change at saturation. Normalized chemical shift changes were calculated using the equation δ=ΔδH^2+(ΔδN/5)^2 (3), where Δδ is the change in chemical shift in parts per million (ppm).

The subject of a further assay is Taf14FL-601 DNA complex. Description: EMSA of 601 Widom DNA with Taf14FL with or without peptide. In kind it is biochemical, Saccharomyces cerevisiae. As to conditions: protein preincubated with peptide at 1:2.5 molar ratio; 8% native polyacrylamide gel. On the procedure:
(§1) EMSAs were performed by mixing increasing amounts of Taf14 proteins with 0.25 pmol/lane of 601 DNA in 25 mM Tris-HCl pH 7.5, 25-100 mM NaCl, 0.2 mM ethylenediaminetetraacetic acid (EDTA), 10% glycerol and 1 mM DTT in 10 µL reaction volume. The Taf14 proteins were either preincubated with Yng1EBM at a 1:2.5 molar ratio or with Yng1EBM and Sas3EBM at a 1:1:1 molar ratio for a minimum of 1 h on ice or used without peptides prior to addition of DNA. Reaction mixtures were incubated at 4 °C for 10 min (2-2.5 µl of loading dye was added to each sample) and loaded onto an 8% native polyacrylamide gel. Electrophoresis was performed in 0.5x Tris-borate-EDTA (TBE) at 80–120 V on ice. The gels were stained with SYBR Gold (Thermo Fisher Sci) and visualized by Blue LED (UltraThin LED Illuminator-GelCompany).

Another assay relates to Taf14ET-601 DNA complex. Description: EMSA of 601 Widom DNA with Taf14ET with or without peptide. In kind it is biochemical, Saccharomyces cerevisiae. Conditions: protein preincubated with peptide at 1:2.5 molar ratio; 8% native polyacrylamide gel. As for the experimental part: as §1
On the technique in general: Mobility shift assays separate free from complexed probe on a gel.

For Ac-EPKLLLKINLKK-NH2 [Yng1EBM], the “CSPs induced in 15N-labeled Taf14YEATS” value in the assay with Taf14YEATS is reported as “No CSPs”. Moreover, the “effect of peptide on binding of Taf14FL to 601 DNA (EMSA)” value in the assay with Taf14FL-601 DNA complex is recorded as “enhanced”. Moreover, the “effect of peptide on DNA binding activity of isolated Taf14ET (EMSA)” value in the assay on Taf14ET-601 DNA complex is on record as “increased”.
